According to US5474928A, “Arginine deiminase from a Mycoplasma arginini strain” (Nippon Mining Company, Limited, priority 1989, dated 1995):

How the values were obtained:
[1] = biological target: T1, Mycoplasma arginini (IFO 14476) arginine deiminase (EC 3.5.3.6), present invention, amino acid sequence of FIG. 4 (Mycoplasmopsis arginini, UniProt P23793); experiment: Km determination by Lineweaver-Burk plot analysis, citrulline formation assay; type: biochemical; settings: purified enzyme from M. arginini, substrate L-arginine
T1 construct: Arginine deiminase was purified from the M. arginini cell extract; endogenous in cells; host or cells: Mycoplasma arginini IFO 14476 cells (strain from the Institute for Fermentation, Osaka); enzyme purified in house by three chromatography steps
Method: The activity of arginine deiminase can be determined by causing it to produce citrulline using the method reported by Fenske et. al. [J. Bacteriol. 126, 501-510 (1976)], and by measuring the amount of the yields using the method given by Archibald [J. Biol. Chem. 156, 121-142 (1944)].
Specifically, 20 μl of arginine deiminase solution is added to 1.0 ml of 10 mM arginine [dissolved in 0.1M phosphate buffer of pH 7.0], then an enzyme reaction is allowed to take place at 37° C. for 10 minutes, and the reaction is terminated by adding 1 ml of mixed acid solution (H2 SO4 :H3 PO4 =1:3). Then, the resultant reactive solution is added with 25 μl of 3% aqueous diacetylmonooxim solution, heated at 100° C. for 20 minutes under a light-shielded condition, left to cool under a room temperature for 30 minutes, and then the amount of the citrulline yield is measured quantitatively by measuring the absorbence at 490 nm. The activity of arginine deiminase producing 1 μmol of citrulline in one minute is defined as 1 unit.
v) Km value and Vmax value
By the Lineweaver-Burk plot analysis Km and Vmax were determined as 0.2 mM and 50 U/mg, respectively.

[2] = system: M. arthritidis arginine deiminase; settings: literature value, Table 1; substrate L-arginine; cited from earlier work
[3] = system: M. hominis arginine deiminase; settings: literature value, Table 1; substrate L-arginine; cited from earlier work
[4] = system: Strepto- faecalis arginine deiminase; settings: literature value, Table 1; substrate L-arginine; cited from earlier work

T1 sequence (P23793 whole entry): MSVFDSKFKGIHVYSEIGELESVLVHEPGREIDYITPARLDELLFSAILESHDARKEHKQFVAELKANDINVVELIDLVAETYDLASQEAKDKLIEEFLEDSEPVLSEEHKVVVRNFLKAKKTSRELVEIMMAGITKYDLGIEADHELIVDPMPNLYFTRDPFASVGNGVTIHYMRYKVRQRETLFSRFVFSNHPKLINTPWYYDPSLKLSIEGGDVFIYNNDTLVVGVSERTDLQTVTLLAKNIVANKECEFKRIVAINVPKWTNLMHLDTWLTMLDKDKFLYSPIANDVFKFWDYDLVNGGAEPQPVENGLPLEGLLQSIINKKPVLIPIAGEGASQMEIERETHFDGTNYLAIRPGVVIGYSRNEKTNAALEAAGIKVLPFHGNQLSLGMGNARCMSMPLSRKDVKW

In the case of N=C(N)NCCC[C@H](N)C(=O)O [L-arginine], the Km [1] is listed as about 200 µM, the Km [2] is listed as 4 µM and the Km [3] is listed as 100 to 400 µM. The Km [4] was 150 µM.
